According to patent US20240424111A1, “Degrader Compounds and Uses Thereof” (CALICO LIFE SCIENCES LLC, priority 2021, published 2024):

Tests used:
PTPN2 [1] = biological target: T1, PTPN2 (Homo sapiens, UniProt P17706); assay: HiBiT PTPN2 degradation in 293T.109 (HiBiT-PTPN2) cells, 24 hours; format: cell-based; conditions: 293T.109 cells
T1 construct: expressed in transfected cells; host or cells: 293T.109 (HiBiT-PTPN2), derived from 293T WT (ATCC)
T1 sequence (P17706 1-415): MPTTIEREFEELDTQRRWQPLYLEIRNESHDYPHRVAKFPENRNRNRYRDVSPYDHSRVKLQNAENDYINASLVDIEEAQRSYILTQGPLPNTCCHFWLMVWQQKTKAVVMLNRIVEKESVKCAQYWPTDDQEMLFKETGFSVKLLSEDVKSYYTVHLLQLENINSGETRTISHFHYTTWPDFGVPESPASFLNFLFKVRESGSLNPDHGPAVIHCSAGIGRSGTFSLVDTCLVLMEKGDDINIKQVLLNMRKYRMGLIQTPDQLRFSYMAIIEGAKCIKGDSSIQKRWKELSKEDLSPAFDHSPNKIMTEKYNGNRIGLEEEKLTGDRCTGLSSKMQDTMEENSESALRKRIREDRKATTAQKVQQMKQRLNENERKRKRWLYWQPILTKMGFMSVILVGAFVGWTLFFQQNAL
In short: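 293T cells stably expressing N-terminal HiBiT-tagged PTPN2 were treated for 24 h at 37 °C with compound in an 11-point half-log series from 10 μM top concentration, in duplicate. Remaining HiBiT-PTPN2 was measured by lytic luminescence, with untreated cells as the negative control and wells without lytic reagent as the positive control.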

PTPN2 [2] = biological target: T2, PTPN2 (Mus musculus, UniProt Q06180); assay: HiBiT PTPN2 degradation in B16F10.4 cells, 24 hours; format: cell-based
T2 construct: HiBiT; host or cells: B16F10.4
T2 sequence (Q06180 1-406): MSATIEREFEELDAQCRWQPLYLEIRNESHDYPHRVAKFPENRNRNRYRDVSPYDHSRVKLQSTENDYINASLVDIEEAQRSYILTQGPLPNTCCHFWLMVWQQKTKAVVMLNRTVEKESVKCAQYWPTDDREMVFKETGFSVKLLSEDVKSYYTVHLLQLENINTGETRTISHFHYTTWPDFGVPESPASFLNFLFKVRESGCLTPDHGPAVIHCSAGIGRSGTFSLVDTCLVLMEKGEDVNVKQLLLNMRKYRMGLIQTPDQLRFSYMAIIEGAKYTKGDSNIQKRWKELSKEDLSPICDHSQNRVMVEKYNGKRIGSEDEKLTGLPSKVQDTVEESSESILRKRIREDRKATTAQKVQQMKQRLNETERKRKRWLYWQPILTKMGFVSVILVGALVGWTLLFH
In short: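 PTPN2 degradation was measured via luminescence from the Nano-Glo® HiBiT Lytic Assay kit. Compounds were dispensed into 384-well plates at an 11-point half-log titration in duplicate, starting at 10 μM. Cells were added at 5000 per well and held at 37° C. with 5% CO2 for 24 hours. Untreated cells were the negative control and cells without lytic reagent the positive control. Lytic reagents were then added and luminescence read on an EnVision™ Multilabel Reader.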

Cn1c(=O)n(C2CCC(=O)NC2=O)c2ccc(C3CCN(CC(=O)N4CC[C@H](Oc5ccc6cc(O)c(N7CC(=O)NS7(=O)=O)c(F)c6c5)C4)CC3(F)F)cc21 (some centres unmarked) [Degrader 116]
DC50 (PTPN2 [1]): ≥ 500 nM
DC50 (PTPN2 [2]): ≥ 500 nM

Cn1c(=O)n(C2CCC(=O)NC2=O)c2ccc(C3CCN(CC(=O)N4CC[C@@H](Oc5ccc6cc(O)c(N7CC(=O)NS7(=O)=O)c(F)c6c5)C4)CC3(F)F)cc21 (some centres unmarked) [Degrader 117]
DC50 (PTPN2 [1]): ≥ 500 nM
DC50 (PTPN2 [2]): ≥ 500 nM

Cn1c(=O)n(C2CCC(=O)NC2=O)c2ccc(N3CCC(C(C)(C)C(=O)Nc4ccc5c(F)c(N6CC(=O)NS6(=O)=O)c(O)cc5c4)CC3)cc21 (centres unmarked) [Degrader 118]
DC50 (PTPN2 [1]): ≥ 500 nM
DC50 (PTPN2 [2]): 150 to 500 nM

Cn1c(=O)n(C2CCC(=O)NC2=O)c2ccc(N3CCc4cc(CC(=O)Nc5ccc6c(F)c(N7CC(=O)NS7(=O)=O)c(O)cc6c5)ccc43)cc21 (centres unmarked) [Degrader 119]
DC50 (PTPN2 [1]): 150 to 500 nM
DC50 (PTPN2 [2]): 50 to 150 nM

Cn1c(=O)n(C2CCC(=O)NC2=O)c2ccc(-n3ccc4cc(CC(=O)Nc5ccc6c(F)c(N7CC(=O)NS7(=O)=O)c(O)cc6c5)ccc43)cc21 (centres unmarked) [Degrader 120]
DC50 (PTPN2 [1]): 150 to 500 nM
DC50 (PTPN2 [2]): 50 to 150 nM

C[C@H]1CC(c2ccc3c(c2)n(C)c(=O)n3C2CCC(=O)NC2=O)CCN1CC(=O)Nc1ccc2c(F)c(N3CC(=O)NS3(=O)=O)c(O)cc2c1 (some centres unmarked) [Degrader 121]
DC50 (PTPN2 [1]): < 50 nM
DC50 (PTPN2 [2]): 50 to 150 nM

Cn1c(=O)n(C2CCC(=O)NC2=O)c2cnc(-c3ccc(CC(=O)Nc4ccc5c(F)c(N6CC(=O)NS6(=O)=O)c(O)cc5c4)cc3)cc21 (centres unmarked) [Degrader 122]
DC50 (PTPN2 [1]): ≥ 500 nM
DC50 (PTPN2 [2]): 150 to 500 nM

Cn1c(=O)n(C2CCC(=O)NC2=O)c2ccc([C@@H]3CCN(CC(=O)Nc4ccc5c(F)c(N6CC(=O)NS6(=O)=O)c(O)cc5c4)C3)cc21 (some centres unmarked) [Degrader 124]
DC50 (PTPN2 [1]): < 50 nM
DC50 (PTPN2 [2]): 150 to 500 nM

Cn1cc(N2CCC(=O)NC2=O)c2cc(F)c(-c3ccc(CC(=O)Nc4ccc5c(F)c(N6CC(=O)NS6(=O)=O)c(O)cc5c4)cc3)cc21 [Degrader 125]
DC50 (PTPN2 [1]): 150 to 500 nM
DC50 (PTPN2 [2]): 150 to 500 nM

C[C@H]1CN(c2ccc3c(c2)n(C)c(=O)n3C2CCC(=O)NC2=O)CC[C@H]1CC(=O)Nc1ccc2c(F)c(N3CC(=O)NS3(=O)=O)c(O)cc2c1 (some centres unmarked) [Degrader 126]
DC50 (PTPN2 [1]): 50 to 150 nM
DC50 (PTPN2 [2]): 50 to 150 nM

C[C@@H]1CN(c2ccc3c(c2)n(C)c(=O)n3C2CCC(=O)NC2=O)CC[C@@H]1CC(=O)Nc1ccc2c(F)c(N3CC(=O)NS3(=O)=O)c(O)cc2c1 (some centres unmarked) [Degrader 127]
DC50 (PTPN2 [1]): 50 to 150 nM
DC50 (PTPN2 [2]): 50 to 150 nM

O=C1CCC(c2ccc(C3CCN(CC(=O)Nc4ccc5c(F)c(N6CC(=O)NS6(=O)=O)c(O)cc5c4)CC3)cc2)C(=O)N1 (centres unmarked) [Degrader 128]
DC50 (PTPN2 [1]): 150 to 500 nM
DC50 (PTPN2 [2]): ≥ 500 nM

Cn1nc(N2CCC(=O)NC2=O)c2cc(F)c(N3CCC(CC(=O)Nc4ccc5c(F)c(N6CC(=O)NS6(=O)=O)c(O)cc5c4)CC3)cc21 [Degrader 129]
DC50 (PTPN2 [1]): 50 to 150 nM
DC50 (PTPN2 [2]): 150 to 500 nM

CCn1c(=O)n(C2CCC(=O)NC2=O)c2ccc([C@@H]3CCN(CC(=O)Nc4ccc5c(F)c(N6CC(=O)NS6(=O)=O)c(O)cc5c4)C[C@H]3F)cc21 (some centres unmarked) [Degrader 131]
DC50 (PTPN2 [1]): 150 to 500 nM
DC50 (PTPN2 [2]): ≥ 500 nM

C[C@@H]1CN(c2ccc3c(c2)n(C)c(=O)n3C2CCC(=O)NC2=O)CC[C@H]1CC(=O)Nc1ccc2c(F)c(N3CC(=O)NS3(=O)=O)c(O)cc2c1 (some centres unmarked) [Degrader 132]
DC50 (PTPN2 [1]): 50 to 150 nM
DC50 (PTPN2 [2]): 50 to 150 nM

C[C@H]1CN(c2ccc3c(c2)n(C)c(=O)n3C2CCC(=O)NC2=O)CC[C@@H]1CC(=O)Nc1ccc2c(F)c(N3CC(=O)NS3(=O)=O)c(O)cc2c1 (some centres unmarked) [Degrader 133]
DC50 (PTPN2 [1]): 50 to 150 nM
DC50 (PTPN2 [2]): 50 to 150 nM

Cn1nc(N2CCC(=O)NC2=O)c2cc(F)c(N3CCC(CC(=O)Nc4ccc5c(F)c(N6CC(=O)NS6(=O)=O)c(O)cc5c4)CC3)cc21 [Degrader 134]
DC50 (PTPN2 [1]): 50 to 150 nM
DC50 (PTPN2 [2]): 150 to 500 nM

Cn1c(=O)n(C2CCC(=O)NC2=O)c2cccc(N3CCC[C@@H](OCC(=O)Nc4ccc5c(F)c(N6CC(=O)NS6(=O)=O)c(O)cc5c4)C3)c21 (some centres unmarked) [Degrader 135]
DC50 (PTPN2 [1]): ≥ 500 nM
DC50 (PTPN2 [2]): ≥ 500 nM

Cn1c(=O)n(C2CCC(=O)NC2=O)c2ccc(Cc3ccc(CC(=O)Nc4ccc5c(F)c(N6CC(=O)NS6(=O)=O)c(O)cc5c4)cc3)cc21 (centres unmarked) [Degrader 136]
DC50 (PTPN2 [1]): < 50 nM
DC50 (PTPN2 [2]): 50 to 150 nM

Cn1c(=O)n(C2CCC(=O)NC2=O)c2ccc(-c3ccc([C@H](CO)C(=O)Nc4ccc5c(F)c(N6CC(=O)NS6(=O)=O)c(O)cc5c4)cc3)cc21 (some centres unmarked) [Degrader 137]
DC50 (PTPN2 [1]): 150 to 500 nM
DC50 (PTPN2 [2]): < 50 nM

Cn1c(=O)n(C2CCC(=O)NC2=O)c2ccc(-c3ccc([C@@H](CO)C(=O)Nc4ccc5c(F)c(N6CC(=O)NS6(=O)=O)c(O)cc5c4)cc3)cc21 (some centres unmarked) [Degrader 138]
DC50 (PTPN2 [1]): < 50 nM
DC50 (PTPN2 [2]): < 50 nM

Cn1c(=O)n(C2CCC(=O)NC2=O)c2ccc(N3CCN(CC(=O)Nc4ccc5c(F)c(N6CC(=O)NS6(=O)=O)c(O)cc5c4)C(=O)C3)cc21 (centres unmarked) [Degrader 139]
DC50 (PTPN2 [1]): 150 to 500 nM
DC50 (PTPN2 [2]): ≥ 500 nM

Cn1c(=O)n(C2CCC(=O)NC2=O)c2ccc(C3CN(CC(=O)Nc4ccc5c(F)c(N6CC(=O)NS6(=O)=O)c(O)cc5c4)CCC3F)cc21 (centres unmarked) [Degrader 140]
DC50 (PTPN2 [1]): 50 to 150 nM
DC50 (PTPN2 [2]): 150 to 500 nM

Cn1c(=O)n(C2CCC(=O)NC2=O)c2ccc([C@@H]3CN(CC(=O)Nc4ccc5c(F)c(N6CC(=O)NS6(=O)=O)c(O)cc5c4)CC[C@H]3F)cc21 (some centres unmarked) [Degrader 141]
DC50 (PTPN2 [1]): < 50 nM
DC50 (PTPN2 [2]): 50 to 150 nM

Cn1c(=O)n(C2CCC(=O)NC2=O)c2ccc([C@H]3CN(CC(=O)Nc4ccc5c(F)c(N6CC(=O)NS6(=O)=O)c(O)cc5c4)CC[C@@H]3F)cc21 (some centres unmarked) [Degrader 142]
DC50 (PTPN2 [1]): 150 to 500 nM
DC50 (PTPN2 [2]): 150 to 500 nM

O=C1CCC(N2C(=O)c3cccc4c(N5CCC(CC(=O)Nc6ccc7c(F)c(N8CC(=O)NS8(=O)=O)c(O)cc7c6)CC5)ccc2c34)C(=O)N1 (centres unmarked) [Degrader 143]
DC50 (PTPN2 [1]): 50 to 150 nM
DC50 (PTPN2 [2]): < 50 nM

Cn1c(=O)n(C2CCC(=O)NC2=O)c2ccc(N3CCC(CCNC(=O)Nc4ccc5c(F)c(N6CC(=O)NS6(=O)=O)c(O)cc5c4)CC3)c(F)c21 (centres unmarked) [Degrader 144]
DC50 (PTPN2 [1]): < 50 nM
DC50 (PTPN2 [2]): 50 to 150 nM

Cn1c(=O)n(C2CCC(=O)NC2=O)c2ccc3c(c21)CCCN3CCCC(=O)Nc1ccc2c(F)c(N3CC(=O)NS3(=O)=O)c(O)cc2c1 (centres unmarked) [Degrader 145]
DC50 (PTPN2 [1]): ≥ 500 nM
DC50 (PTPN2 [2]): ≥ 500 nM

Cn1c(=O)n(C2CCC(=O)NC2=O)c2ccc3c(c21)CCCN3CCCCC(=O)Nc1ccc2c(F)c(N3CC(=O)NS3(=O)=O)c(O)cc2c1 (centres unmarked) [Degrader 146]
DC50 (PTPN2 [1]): < 50 nM
DC50 (PTPN2 [2]): 50 to 150 nM

Cn1c(=O)n(C2CCC(=O)NC2=O)c2ccc(N3CCC(CC(=O)Nc4ccc5c(F)c(N6CC(=O)NS6(=O)=O)c(O)cc5c4)CC3)cc21 (centres unmarked) [Degrader 147]
DC50 (PTPN2 [1]): 150 to 500 nM
DC50 (PTPN2 [2]): 150 to 500 nM

C[C@@H]1CN(CC(=O)Nc2ccc3c(F)c(N4CC(=O)NS4(=O)=O)c(O)cc3c2)CCN1c1ccc2c(c1F)n(C)c(=O)n2C1CCC(=O)NC1=O (some centres unmarked) [Degrader 148]
DC50 (PTPN2 [1]): 50 to 150 nM
DC50 (PTPN2 [2]): 150 to 500 nM

Cn1c(=O)n(C2CCC(=O)NC2=O)c2ccc(-c3ccn(CC(=O)Nc4ccc5c(F)c(N6CC(=O)NS6(=O)=O)c(O)cc5c4)n3)cc21 (centres unmarked) [Degrader 149]
DC50 (PTPN2 [1]): 150 to 500 nM
DC50 (PTPN2 [2]): 150 to 500 nM

C[C@@H]1CN(CC(=O)Nc2ccc3c(F)c(N4CC(=O)NS4(=O)=O)c(O)cc3c2)CCN1c1cc2c(cc1F)n(C1CCC(=O)NC1=O)c(=O)n2C (some centres unmarked) [Degrader 150]
DC50 (PTPN2 [1]): 150 to 500 nM
DC50 (PTPN2 [2]): 150 to 500 nM

Cn1c(=O)n(C2CCC(=O)NC2=O)c2ccc([C@H]3CCCN(CC(=O)Nc4ccc5c(F)c(N6CC(=O)NS6(=O)=O)c(O)cc5c4)C3)cc21 (some centres unmarked) [Degrader 151]
DC50 (PTPN2 [1]): 150 to 500 nM
DC50 (PTPN2 [2]): 150 to 500 nM
